Measured values published in US12509421B2, “Preparation and application of deuterated 4-phenyl-4-piperidinols” (priority 2022, dated 2025).
Where a name gives a salt, the structure may show the parent alone. Read-outs that look alike come from different tables or passages of the source.

Experiments:
Female Kunming mice = test: Hot plate analgesia test in mice; type: in vivo; conditions: intraperitoneal, 55° C. hot plate; for ED50: Mus musculus, ip; for Maximum analgesic effective percentage (% MPE), hot plate: 10 mg/kg
Procedure: Female Kunming mice weighing about 20 g are placed on a hot plate instrument preheated to 55° C., and the latency of licking hind feet or lifting hind feet is used as the pain threshold index. Animals are screened before the experiment, and animals with latency less than 5 s or more than 30 s are excluded. To prevent foot burns, the longest observation time is set to 60s. The basic pain threshold is the average of two measurements, and the interval between the two measurements is 5 minutes. The pain threshold of mice in each group is determined at 15 minutes, 30 minutes, 60 minutes and 120 minutes after intraperitoneal administration. The effective percentage of analgesia (% MPE) is calculated according to the following formula
[formula] According to the effective percentage of analgesia, the ED50 value is calculated by graphpad prism 5.0 software.

hERG potassium channel = hERG potassium channel (Homo sapiens, UniProt Q12809); test: hERG potassium channel whole-cell patch clamp (HEK293); type: cell-based; set-up: expressed in transfected cells; host or cells: HEK293 cell line; conditions: for IC50: HEK293 cells stably expressing hERG, whole-cell patch clamp, room temperature, read-out: Half-inhibition concentration of compounds to be tested on hERG (IC50)
From the text: The rapidly activated potassium channel encoded by human ether-a-go-go-related gene (hERG) is an important ion channel involved in the formation of phase 3 repolarization of myocardial action potential. […] Drug-induced delayed ventricular repolarization may cause fatal arrhythmia-torsade de pointes in some cases. According to statistics, about 25-40% of the lead compounds show different degrees of hERG-related toxicity, and many drugs are withdrawn from the market because they may lead to the risk of QT interval extension. At present, National Medical Products Administration also requires hERG/IKr safety evaluation data before clinical trial application (IND) of new drugs under study. • 1. Whole-cell patch clamp technique is used to study the inhibitory effect of compounds on hERG potassium channels: • 1) the compound to be tested is stored with physiological saline prepared into 10 mM liquid. The test stock solution is diluted with physiological saline into 3 mM, 1 mM and 0.3 mM diluents in turn. […] The old culture medium removed and is washed once with PBS, then added with 1 mL TrypLE™ Express solution and incubated at 37° C. for about 0.5 minutes. When the cells are detached from the bottom of the dish, about 5 ml complete medium preheated is added at 37° C. The cell suspension is gently blown with a straw to separate the aggregated cells. The cell suspension is transferred to a sterile centrifuge tube and centrifuged at 1000 rpm for 5 minutes to collect cells. […] The clamping voltage is depolarized from −80 mV to −50 mV for 0.5 seconds (as leakage current detection), then stepped to 30 mV for 2.5 seconds, and then quickly recovered to −50 mV for 4 seconds, which can excite the tail current of hERG channel. Data are collected repeatedly every 10s to observe the effect of drugs on hERG tail current. 0.5 seconds-50 mV stimulation is used as leakage current detection. The test data are collected by IPA amplifier (Sutter Instrument) and stored in SutterPatch software.
Capillary glass tube is drawn into recording electrode by microelectrode drawing instrument. Under the inverted microscope, the microelectrode manipulator is operated to contact the recording electrode with the cell, and negative pressure suction is given to form a GΩ seal. After the GΩ seal is formed, rapid capacitance compensation is carried out, and then negative pressure is continuously applied to break the cell membrane, forming a whole cell recording mode. Then the slow capacitance is compensated and the film capacitance and series resistance are recorded. No leakage compensation is given.
When the hERG current recorded in the whole cell is stable, the drug is administered, and the next concentration is detected after each drug concentration acts for 5 minutes (or the current is stable), and multiple concentrations are detected for each test compound. The cover glass covered with cells is placed in the recording bath in an inverted microscope, and the test compound and the external liquid containing no compound flowed through the recording bath from low concentration to high concentration by gravity perfusion method, so as to act on the cells, and liquid exchange is carried out by using a vacuum pump during recording. The current detected by each cell in the external fluid without compounds is used as its own control group.
At least two cells are used to detect each concentration independently and repeatedly twice. All electrophysiological tests are conducted at room temperature.
Firstly, the current after each drug concentration and the blank control current are standardized
[formula] followed by the calculation of the inhibition rate
[formula] corresponding to each drug concentration, the average and standard deviation for each concentration, and the semi-inhibition concentration of each compound with the following equation: […]
The dose-dependent effect is nonlinear fitted by the above equation, and IC50 is semi-inhibitory concentration.

κOR = molecular target: T1, κOR (Homo sapiens, UniProt P41145); test: Opioid receptor competitive binding test, κOR; conditions: compound at 10 μM; [3H]-labeled ligand; CHO cell membranes; ± SD of three measurements
T1 construct: expressed in transfected cells; host or cells: CHO cells
Procedure: (§1) CHO cells expressing p opioid receptor, δ opioid receptor and K opioid receptor are cultured in a 10 cm^2 Petri dish (F-12 medium+10% newborn bovine serum) for several days, and the culture solution is sucked after the cells grew to the bottom of the dish. 3 ml PBS/EDTA solution (0.1M NaCl, 0.01M NaH2PO4, 0.04% EDTA) is added for digestion for 3-5 minutes. The cells are blown with a straw to get fall off completely, collected in a 40 ml centrifuge tube, centrifuged at 5000 rpm for 5 minutes, and removed with the supernatant. The centrifuge tube is added with ice-cold homogenate (50 mM HEPES PH 7.4, 3 mM MgCl2, 1 mM EGTA). The solution and precipitate are transferred to homogenizer for homogenization; Then the homogenate is transferred into a centrifuge tube, centrifuged at 18000 rpm for 15 minutes, and centrifuged twice; the obtained precipitate is added with an appropriate amount of buffer solution of 50 mM Tris-HCl and pH 7.4, homogenized and sub-packaged in centrifuge tubes. The product is stored in a refrigerator at −70° C. for later use.
(§2) 20-30 μg expressed membrane receptor protein and [3H]-labeled ligand (1-2 nM) are added to the total binding tube, added with 1 μM of corresponding ligand to the corresponding nonspecific binding tube. Various screened opioid ligand drugs (see the drug compounds in Table 1 below) are added to the sample tube with 100 μL final volume. The sample is incubated at 30° C. for 30 minutes, and the reaction is terminated in ice water. The glass fiber filter paper gF/C (whatman) is used for negative pressure filtration on Millipore sample collector. The sample is eluted with 4 ml 50 mm tris-HCl (pH 7.4) for three times, dried with the filter paper, put in 0.5 ml Eppendorf tube and added with 0.5 ml lipophilic scintillation liquid. The radioactive intensity is measured with PERKIN ELMER PRI-CARB 2910 liquid scintillation counter with calculation of the inhibition rate. The experiment is repeated for more than three times, with three compound tubes in each group. Inhibition rate(or binding rate)=(total binding rate dpm−sample tube dpm)/(total binding tube dpm-nonspecific binding tube dpm)×100%
(§3) IC50 is calculated with Prism 5.0 software. The Ki value is calculated according to the following formula: Ki=IC50/(1^+[L]/Kd), wherein [L] is the concentration of the added labeled ligand, and Kd is the equilibrium dissociation parameter of the labeled ligand.

μOR = molecular target: T2, μOR (Homo sapiens, UniProt P35372); test: Opioid receptor competitive binding test, μOR; conditions: compound at 10 μM; [3H]-labeled ligand; CHO cell membranes; ± SD of three measurements
T2 construct: expressed in transfected cells; host or cells: CHO cells
Procedure: as §1, §2, §3

δOR = molecular target: T3, δOR (Homo sapiens, UniProt P41143); test: Opioid receptor competitive binding test, δOR; conditions: compound at 10 μM; [3H]-labeled ligand; CHO cell membranes; ± SD of three measurements
T3 construct: expressed in transfected cells; host or cells: CHO cells
Procedure: as §1, §2, §3

CYP 2D6 = CYP 2D6 (Homo sapiens, UniProt P10635); test: Inhibition of cytochrome P450 enzyme in human liver microsomes, CYP 2D6; conditions: read-out: CYP 2D6 IC50; human liver microsomes; substrate Dextromethorphan
CYP 1A2 = molecular target: T4, CYP 1A2 (Homo sapiens, UniProt P05177); test: Inhibition of cytochrome P450 enzyme in human liver microsomes, CYP 1A2; conditions: read-out: CYP 1A2 IC50; human liver microsomes; substrate Finacetin
T4 sequence (P05177 1-516): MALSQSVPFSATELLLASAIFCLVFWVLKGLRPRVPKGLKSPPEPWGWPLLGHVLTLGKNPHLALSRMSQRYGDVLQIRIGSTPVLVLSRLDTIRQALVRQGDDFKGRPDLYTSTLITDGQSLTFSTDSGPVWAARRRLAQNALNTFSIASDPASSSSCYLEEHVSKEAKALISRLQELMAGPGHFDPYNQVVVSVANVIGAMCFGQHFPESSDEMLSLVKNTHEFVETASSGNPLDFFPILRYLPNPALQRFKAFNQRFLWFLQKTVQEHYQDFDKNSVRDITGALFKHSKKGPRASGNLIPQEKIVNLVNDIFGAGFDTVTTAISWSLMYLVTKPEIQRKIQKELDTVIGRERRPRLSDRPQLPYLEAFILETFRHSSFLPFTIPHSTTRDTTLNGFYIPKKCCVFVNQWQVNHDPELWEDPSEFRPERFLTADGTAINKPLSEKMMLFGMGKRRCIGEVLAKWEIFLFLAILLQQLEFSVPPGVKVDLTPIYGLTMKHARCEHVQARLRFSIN

CYP 3A4 = CYP 3A4 (Homo sapiens, UniProt P08684); conditions: read-out: CYP 3A4 IC50, human liver microsomes
CYP 2C19 = CYP 2C19 (Homo sapiens, UniProt P33261); test: Inhibition of cytochrome P450 enzyme in human liver microsomes, CYP 2C19; conditions: read-out: CYP 2C19 IC50; human liver microsomes; substrate (S)-mephenytoin
CYP 2C9 = CYP 2C9 (Homo sapiens, UniProt P11712); test: Inhibition of cytochrome P450 enzyme in human liver microsomes, CYP 2C9; conditions: read-out: CYP 2C9 IC50; human liver microsomes; substrate Diclofenac

Compound: [2H]C([2H])([2H])N(C)CC1CN(S(=O)(=O)Cc2ccccc2)CCC1(O)c1cccc(OC)c1 (stereo not drawn) [I-1hydrochloride]
- ED50 (Female Kunming mice): 0.62 mg/kg
- hERG inhibition grade (hERG potassium channel): μM((Weak inhibition)
- IC50 (hERG potassium channel): 12.9 µM
- κOR binding rate (κOR): 22.5 ± 3.2%
- μOR binding rate (μOR): 23.95 ± 3.8%
- δOR binding rate (δOR): 11.4 ± 1.7%

Compound: COc1cccc([C@]2(O)CCN(S(=O)(=O)Cc3ccccc3)C[C@H]2CN(C)C)c1.Cl [Example 20 of CN201911076305.X, (3R, 4S)-1-(benzylsulfonyl)-3-(dimethylamino)methyl)-4-(3-methoxyphenyl)-4-piperidinol hydrochloride, reference compound]
- IC50 (CYP 2D6): 9.61 µM
- IC50 (CYP 1A2): > 50 µM
- IC50 (CYP 3A4; substrate midazolam): 32.3 µM
- IC50 (CYP 3A4; substrate testosterone): 46.4 µM
- IC50 (CYP 2C19): > 50 µM
- IC50 (CYP 2C9): > 50 µM

Compound: [2H]C([2H])([2H])N(CC1CN(S(=O)(=O)Cc2ccccc2)CCC1(O)c1cccc(OC)c1)C([2H])([2H])[2H] (stereo not drawn) [I-4hydrochloride]
- Maximum analgesic effective percentage (% MPE), hot plate (Female Kunming mice): 100%
- hERG inhibition grade (hERG potassium channel): μM((Weak inhibition)
- IC50 (hERG potassium channel): 11 µM
- κOR binding rate (κOR): 18.5 ± 3.2%
- μOR binding rate (μOR): 25.9 ± 3.9%
- δOR binding rate (δOR): 10.1 ± 0.6%

Compound: 1-(4-hydroxy-4-(3-methoxyphenyl)-3-(((methyl-d3)amino)methyl)-1-piperidinyl)-2(2,4,5-trifluorophenyl)ethyl-1-one [I-5hydrochloride]
- ED50, hot plate (Female Kunming mice): 0.75 mg/kg
- hERG inhibition grade (hERG potassium channel): μM((Weak inhibition)
- IC50 (hERG potassium channel): 13.5 µM
- κOR binding rate (κOR): 19.1 ± 1.2%
- μOR binding rate (μOR): 22.6 ± 1.7%
- δOR binding rate (δOR): 12.5 ± 2.9%

Compound: [2H]C([2H])([2H])Oc1cccc(C2(O)CCN(S(=O)(=O)Cc3ccccc3)CC2CN(C([2H])([2H])[2H])C([2H])([2H])[2H])c1 (stereo not drawn) [I-3hydrochloride]
- ED50 (Female Kunming mice): 0.82 mg/kg
- hERG inhibition grade (hERG potassium channel): μM((Weak inhibition)
- IC50 (hERG potassium channel): 16.6 µM
- κOR binding rate (κOR): 14.9 ± 0.9%
- μOR binding rate (μOR): 22.75 ± 2.3%
- δOR binding rate (δOR): 8.6 ± 1.2%

Compound: [2H]C([2H])([2H])N(CC1CN(C(=O)Cc2cc(F)c(F)cc2F)CCC1(O)c1cccc(OC)c1)C([2H])([2H])[2H] (stereo not drawn) [I-8hydrochloride]
- Maximum analgesic effective percentage (% MPE), hot plate (Female Kunming mice): 100%
- hERG inhibition grade (hERG potassium channel): μM((Weak inhibition)
- IC50 (hERG potassium channel): 16.8 µM
- κOR binding rate (κOR): 16.4 ± 2.6%
- μOR binding rate (μOR): 22.8 ± 2.8%
- δOR binding rate (δOR): 8.2 ± 0.9%
